According to article PMC10220917, “Transdermal Delivery of α-Aminophosphonates as Semisolid Formulations—An In Vitro-Ex Vivo Study” (Pharmaceutics, 2023):
Several values for one entry are separate records, joined by “and”; a condition that tells them apart may be missing. Identical values can stand only once.

Columns and labels:
[1] = Drug penetration in dynamic skin-on-a-chip microfluidic diffusion chamber through excised rat skin; format: in vitro ADME, male Wistar rats; details: 2% cream; for Effect of higher temperature on absorption across excised skins: 32 °C vs 23.5 °C, dynamic diffusion cells; for Cmax (cumulative mass penetrated through excised skin): dynamic cell, excised rat skin, 5 h
Protocol: In the ex vivo experiments, the abdominal skin of male Wistar rats (ToxiCoop, Budapest, Hungary), with 520–609 g bodyweight, were used. The animals had free access to food and water before the study. The experiments were performed in compliance with the guidelines of the Association for Assessment and Accreditation of Laboratory Animal Care International and were in accordance with the spirit of the license issued by the Directorate for the Safety of the Food Chain and Animal Health, Budapest, and Pest Agricultural Administrative Authority, Hungary (PE/EA/4122-7/2016). The rats were anaesthetized intraperitoneally with chloral hydrate (400 mg/kg). The abdominal surface was shaved with an electric shaver and epilated with an epilator cream (X-epil, Aveola Kft., Budapest, Hungary). The skin was washed, wiped dry and mechanically sensitized 10 times by tape stripping with leucoplast (BSN Medical GmbH, Hamburg, Germany) to remove the upper layers of dead keratinocytes. This technique enables reaching detectable concentrations in the dermis and hypodermis. The double-layered skin (pinched together by hand) thickness of the epilated tape-stripped skin was measured with an engineer’s micrometer (Asimeto, Budapest, Hungary). The average double-layered skin thickness was 1.53 ± 0.03 mm. After the first cutting with blunt Metzen scissors, connecting tissue, fat and blood vessels were carefully removed. For the Franz diffusion cell and skin-on-a-chip studies, full-thickness skin incisions were made by punches (Stubai GmbH, Fulpmes, Austria) in diameter of 35 mm and 18 mm, respectively. The excised samples were wrapped in aluminium foil and stored in a deep freezer at −80 °C. On the day of the study, the skin preparations were taken out from the freezer for 30 min before the initiation of the experiment and thawed at room temperature.
The skin-on-a-chip microfluidic diffusion chamber is a polydimethylsiloxane-based system in an aluminium frame (Figure 1B). Similar to the Franz diffusion cells, it contains two compartments, and the membrane or skin is placed between them. The major advantage of this technique is the reduction in needed volumes and pieces in the required components, membranes and skins, as discussed in detail in our previous papers. The diffusion surface is 0.5 cm^2, which separates the aminophosphonate cream-containing donor chamber and the PPF-filled receptor chamber. Contrary to the static Franz diffusion cells, the microfluidic diffusion chamber is a dynamic system, i.e., the PPF flow is continuous in the receptor compartment, ensured by a syringe pump (NE-1000, New Era, Farmingdale, NY, USA), which includes a 5 mL syringe filled with PPF, at a flow rate of 4 µL/min during the experiment. The PPF solution was running through the chip, filling the receptor chamber and the microfluidic channel and leaving the device at the outlet into collection vials. The samples were collected every 30 min for 5 h. The collected samples were placed on dry ice and stored at −80 °C until the bioanalysis. First, the experiments were performed at room temperature (23.5 °C) with temperature regulation by automatic air conditioning system in the lab in three parallels. The investigations were then repeated at 32 °C, putting the whole system into an incubator (Steriliser SN160, Memmert GmbH, Schwabach, Germany). As the volume capacity of incubator was low, only one syringe pump and skin-on-a-chip could be tested in the instrument at the same time. […]

[2] = test system: multidrug-resistant (MDR) uterine sarcome cell line; parameters: method as in earlier work; details: MDR uterine sarcoma cells; cited from earlier work
[3] = Particle size (droplet size) distribution of 2% creams by laser diffraction; format: physicochemical; details: 2% cream formulation
From the text: α-Aminophosphonates were dispersed in the following hydrophilic cream base (O/W emulsion ointments): 46 m/m% Petrolatum ointment base, 10 m/m% Propylene glycol (Hungaropharma Zrt., Budapest, Hungary), 4 m/m% Paraffin oil (Hungaropharma Zrt., Budapest, Hungary), 38 m/m% Purified water. The components of the Petrolatum ointment base were 26 m/m% Vaselinum album (Hungaropharma Zrt., Budapest, Hungary), 12 m/m% Cetostearyl alcohol (Molar Chemicals Kft, Halásztelek, Hungary), 10 m/m% Propylene glycol, 8 m/m% Paraffin oil, 4 m/m% Polyoxyethylene sorbitan monostearate (Poly-sorbate 60) (Hungaropharma Zrt. Budapest, Hungary), and 40 m/m% Purified water (Table 3). The concentration of propylene glycol was set based on the recommendations on topical dosage forms.
The particle size distribution was measured with a Malvern Mastersizer2000 (Malvern Instruments Ltd., Malvern, UK) laser diffraction device. In total, 1 g of sample was dispersed in 10 mL of water, and after 1 min of Vortex shaking, 1 mL was taken and added to the sample dispenser unit containing 100 mL of purified water. The dispenser unit was applied at 1500 RPM.
The multi-channel detector system measured the scattering of red laser light with a wavelength of […], and the evaluation software provided the results after three parallel exposures according to the Fraunhofer method. The average curves were calculated from three parallel measurements. […]

[4] = Drug release in dynamic skin-on-a-chip microfluidic diffusion chamber through cellulose acetate membrane; format: in vitro ADME; details: 2% cream
Protocol: (§1) For the in vitro studies, cellulose acetate filter with pore size of 0.45 μm (Sartorius AG, Göttingen, Germany) was cut to size (35 mm and 18 mm diameter discs for Franz diffusion cell and skin-on-a-chip microfluidic system, respectively) and soaked in isopropyl myristate (Molar Chemicals Kft., Halásztelek, Hungary) for 30 min before the experiment. The excess of isopropyl myristate was removed, and the impregnated cellulose acetate membrane was placed into the Franz diffusion cell or microfluidic diffusion chamber.
The skin-on-a-chip microfluidic diffusion chamber is a polydimethylsiloxane-based system in an aluminium frame (Figure 1B). Similar to the Franz diffusion cells, it contains two compartments, and the membrane or skin is placed between them. The major advantage of this technique is the reduction in needed volumes and pieces in the required components, membranes and skins, as discussed in detail in our previous papers. The diffusion surface is 0.5 cm^2, which separates the aminophosphonate cream-containing donor chamber and the PPF-filled receptor chamber. […]
(§2) The Franz diffusion cell data and the skin-on-a-chip data were averaged, and the means and standard error of the mean (SE) were calculated and presented. Area under the curve (AUC) values were calculated using Origin Pro software. […]

[5] = Drug release in static Franz diffusion cells through cellulose acetate membrane; format: in vitro ADME; details: 2% cream, Franz cell, 32 °C
Protocol: as §1
Hanson 6-Cell Manual Diffusion Test System-type vertical diffusion cells (Franz cell) were used (Hanson Research Corp., Chatsworth CA, USA; ABL&E-JASCO Hungary Kft., Budapest, Hungary, Figure 1A). Each unit was composed of a donor chamber, which was filled with 1000 µL of the aminophosphonate cream by a Microman E piston gel positive replacement pipette (Gilson, Middleton, WI, USA). The sample was layered in a uniform layer on the top of the membrane. The weight of the sample was measured with analytical accuracy. […]
as §2

[6] = Drug penetration in static Franz diffusion cells through excised rat skin; format: in vitro ADME, male Wistar rats; details: 2% cream, Franz cell, 32 °C
Protocol: In the ex vivo experiments, the abdominal skin of male Wistar rats (ToxiCoop, Budapest, Hungary), with 520–609 g bodyweight, were used. The animals had free access to food and water before the study. The experiments were performed in compliance with the guidelines of the Association for Assessment and Accreditation of Laboratory Animal Care International and were in accordance with the spirit of the license issued by the Directorate for the Safety of the Food Chain and Animal Health, Budapest, and Pest Agricultural Administrative Authority, Hungary (PE/EA/4122-7/2016). The rats were anaesthetized intraperitoneally with chloral hydrate (400 mg/kg). The abdominal surface was shaved with an electric shaver and epilated with an epilator cream (X-epil, Aveola Kft., Budapest, Hungary). […] The double-layered skin (pinched together by hand) thickness of the epilated tape-stripped skin was measured with an engineer’s micrometer (Asimeto, Budapest, Hungary). […]
Hanson 6-Cell Manual Diffusion Test System-type vertical diffusion cells (Franz cell) were used (Hanson Research Corp., Chatsworth CA, USA; ABL&E-JASCO Hungary Kft., Budapest, Hungary, Figure 1A). […] The weight of the sample was measured with analytical accuracy. […]

Row | Compound | Effect of higher temperature on absorption across excised skins [1] | Degree of cytotoxicity [2] | Particle (droplet) size d of main peak [3] | Particle (droplet) size d of second peak [3] [µm] | Volume share at main particle size peak [3] | Volume share at second particle size peak [3] | Cmax (cumulative mass released through membrane) ([4]; dynamic cell, cellulose acetate membrane, 32 °C, 5 h) | Effect of higher temperature on penetration through membranes ([4]; 32 °C vs 23.5 °C, dynamic diffusion cells) | Cmax (cumulative mass penetrated through excised skin) ([1]; 32 °C) | Cmax (cumulative mass penetrated through excised skin) ([1]; ambient temperature (23.5 °C)) | Penetration kinetics in the membrane [5] | Cmax (cumulative mass released through membrane) ([5]; cellulose acetate membrane, 5 h) | Penetration profile in rat skin [6] | Cmax (cumulative mass penetrated through excised skin) ([6]; excised rat skin, 5 h)
1 | CCOP(=O)(OCC)C(NCc1ccccc1)c1ccc(C)cc1 (stereo not drawn) [1b] | practically independent of the temperature | most effective | 30–40 µm | 110 | about 6.3% | about 3.2% | – | – | – | – | – | – | – | –
2 | CCOP(=O)(OCC)C(NCc1ccccc1)c1ccc(Cl)cc1 (stereo not drawn) [1c] | significantly improved | most effective | 20–30 µm | 110 | 7.3% | ~ 3.0% | – | – | – | – | – | – | – | –
3 | CCOP(=O)(OCC)C(NCc1ccccc1)c1ccccc1 (stereo not drawn) [1a] | significantly improved | less cytotoxic | 33.156 µm and 33 µm | – | 7% | – | ~ 300 µg/cm^2 | only moderately enhanced | ~ 9 µg/cm^2 | ~ 2.8 μg/cm^2 | rapid and saturating | ~ 330 µg/cm^2 | almost linear growing profile | ~ 21 µg/cm^2
